Data as given in patent publication US11654169B2, “Methods for protecting skin and/or promoting wound healing” (SINPHAR PHARMACEUTICAL CO., LTD., priority 2016, dated 2023).

Assays:
Assay type in all cases: cell-based
[1] = tested on: normal primary human skin fibroblastic cells; test: Intracellular content of collagen in fibroblasts (Western blot and ELISA), relative to control; settings: 48 hours; for relative intracellular content of collagen: control group = 100%; for intracellular contents of collagen as compared to the control group (in words): treated cells vs control group
Procedure: (§1) The normal primary human skin fibroblastic cells (purchased from ATCC) were cultivated in a Fibroblast Growth Medium. The cells thus provided were used in the following experiments. […]
(§2) The normal primary human skin fibroblastic cells provided by [Preparation Example C] were divided into 37 groups and were respectively cultivated with the following medium for 48 hours: • 1. Group 1: a Fibroblast Growth Medium • 2. Group 2-1 to 2-3: Fibroblast Growth Media containing the pachymic acid (PA) provided by [Preparation Example B] at a concentration of 0.01, 0.1 and 1 μM, respectively; • 3. Group 3-1 to 3-3: Fibroblast Growth Media containing the dehydropachymic acid (DPA) provided by [Preparation Example B] at a concentration of 0.01, 0.1 and 1 μM, respectively; • 4. Group 4-1 to 4-3: Fibroblast Growth Media containing the tumulosic acid (TA) provided by [Preparation Example B] at a concentration of 0.01, 0.1 and 1 μM, respectively; • 5. Group 5-1 to 5-3: Fibroblast Growth Media containing the dehydrotumulosic acid (DTA) provided by [Preparation Example B] at a concentration of 0.01, 0.1 and 1 μM, respectively; • 6. Group 6-1 to 6-3: Fibroblast Growth Media containing the polyporenic acid C (PAC) provided by [Preparation Example B] at a concentration of 0.01, 0.1 and 1 μM, respectively; • 7. Group 7-1 to 7-3: Fibroblast Growth Media containing the 3-epi-dehydrotumulosic acid (EDTA) provided by [Preparation Example B] at a concentration of 0.01, 0.1 and 1 μM, respectively; • 8. Group 8-1 to 8-3: Fibroblast Growth Media containing the dehydrotrametenolic acid (DTTA) provided by [Preparation Example B] at a concentration of 0.01, 0.1 and 1 μM, respectively; • 9. Group 9-1 to 9-3: Fibroblast Growth Media containing the trametenolic acid (TTA) provided by [Preparation Example B] at a concentration of 0.01, 0.1 and 1 μM, respectively; • 10. Group 10-1 to 10-3: Fibroblast Growth Media containing the poricoic acid A (PAA) provided by [Preparation Example B] at a concentration of 0.01, 0.1 and 1 μM, respectively; • 11. Group 11-1 to 11-3: Fibroblast Growth Media containing the dehydroeburicoic acid (DEA) provided by [Preparation Example B] at a concentration of 0.01, 0.1 and 1 μM, respectively; • 12. Group 12-1 to 12-3: Fibroblast Growth Media containing the poricoic acid B (PAB) provided by [Preparation Example B] at a concentration of 0.01, 0.1 and 1 μM, respectively; • 13. Group 13-1 to 13-3: Fibroblast Growth Media containing the eburicoic acid (EA) provided by [Preparation Example B] at a concentration of 0.01, 0.1 and 1 μM, respectively.
Thereafter, the cell medium of each group was collected and concentrated. Then, the intracellular content of collagen was measured and analyzed by Western blot and enzyme-linked immunosorbent assay (ELISA).

[2] = tested on: normal primary human skin fibroblastic cells; test: Content of collagen in cell medium (extracellular collagen) of fibroblasts (Western blot and ELISA), relative to control; settings: 48 hours; for relative content of collagen in the medium (extracellular content of collagen): control group = 100%; for extracellular contents of collagen (collagen in cell medium) as compared to the control group (in words): treated cells vs control group
Procedure: The normal primary human skin fibroblastic cells (purchased from ATCC) were cultivated in a Fibroblast Growth Medium. The cells thus provided were used in the following experiments.
The normal primary human skin fibroblastic cells provided by [Preparation Example C] were divided into 4 groups and were respectively cultivated with the following medium for 48 hours: • 1. Group I: a Fibroblast Growth Medium; • 2.
(§3) Thereafter, the cell medium of each group was collected and concentrated. Then, the intracellular content of collagen, the content of collagen in cell medium (i.e., extracellular content of collagen) and the content of hyaluronic acid in cell medium were measured and analyzed by Western blot and enzyme-linked immunosorbent assay (ELISA).
as §2
The content of collagen in the medium of each group (i.e., extracellular content of collagen) was provided.

[3] = tested on: normal primary human skin fibroblastic cells; test: Content of hyaluronic acid in cell medium of fibroblasts (Western blot and ELISA), relative to control; settings: 48 hours; for relative content of hyaluronic acid in the medium (extracellular content of hyaluronic acid): control group = 100%; for contents of hyaluronic acid as compared to the control group (in words) / contents of hyaluronic acid, ingredients singled out as stronger (in words): treated cells vs control group; for contents of hyaluronic acid, ingredients singled out as stronger (in words): compared with the other active ingredients
Procedure: as §1, §3, §2
The content of hyaluronic acid in the medium of each group (i.e., extracellular content of hyaluronic acid) was provided.

Row | Structure (SMILES) | relative intracellular content of collagen ([1]; 0.01 μM) [%] | relative intracellular content of collagen ([1]; 0.1 μM) [%] | relative intracellular content of collagen ([1]; 1 μM) [%] | relative content of collagen in the medium (extracellular content of collagen) ([2]; 0.01 μM) [%] | relative content of collagen in the medium (extracellular content of collagen) ([2]; 0.1 μM) [%] | relative content of collagen in the medium (extracellular content of collagen) ([2]; 1 μM) [%] | extracellular contents of collagen (collagen in cell medium) as compared to the control group (in words) [2] | relative content of hyaluronic acid in the medium (extracellular content of hyaluronic acid) ([3]; 0.01 μM) [%] | relative content of hyaluronic acid in the medium (extracellular content of hyaluronic acid) ([3]; 0.1 μM) [%] | relative content of hyaluronic acid in the medium (extracellular content of hyaluronic acid) ([3]; 1 μM) [%] | contents of hyaluronic acid as compared to the control group (in words) [3] | contents of hyaluronic acid, ingredients singled out as stronger (in words) [3] | intracellular contents of collagen as compared to the control group (in words) [1]
1 | C=C(CC[C@@H](C(=O)O)[C@H]1[C@H](O)C[C@@]2(C)C3=CC[C@H]4C(C)(C)[C@H](O)CC[C@]4(C)C3=CC[C@]12C)C(C)C [3-epi-dehydrotumulosic acid (EDTA), 3-epi-dehydrotumulosic acid] | 87 | 100 | 80 | 98 | 104 | 111 | significantly enhanced | 105 | 122 | 140 | significantly enhanced | enhanced more significantly | –
2 | C=C(CC[C@@H](C(=O)O)[C@H]1CC[C@@]2(C)C3=CC[C@H]4C(C)(C)[C@@H](O)CC[C@]4(C)C3=CC[C@]12C)C(C)C [Dehydroeburicoic acid (DEA), dehydroeburicoic acid] | 94 | 80 | 77 | 143 | 148 | 185 | significantly enhanced | 115 | 118 | 128 | significantly enhanced | – | –
3 | C=C(CCC(C(=O)O)[C@H]1[C@H](O)C[C@@]2(C)C3=CC[C@H]4C(C)(C)[C@@H](OC(C)=O)CC[C@]4(C)C3=CC[C@]12C)C(C)C (some centres unmarked) [Dehydropachymic acid (DPA), dehydropachymic acid] | 154 | 188 | 122 | 124 | 122 | 116 | significantly enhanced | 111 | 131 | 152 | significantly enhanced | enhanced more significantly | significantly enhanced
4 | CC(C)=CCC[C@@H](C(=O)O)[C@H]1CC[C@@]2(C)C3=CC[C@H]4C(C)(C)[C@@H](O)CC[C@]4(C)C3=CC[C@]12C [Dehydrotrametenolic acid (DTTA), dehydrotrametenolic acid] | 190 | 174 | 118 | 117 | 158 | 131 | significantly enhanced | 99 | 87 | 108 | – | – | significantly enhanced
